Source: US20230069886A1, “AROMATIC SULPHONAMIDES DERIVATIVES THAT INHIBITS PDI A3, THEIR SYNTHESIS AND USE” (Uniwersytet Jagiellonski, priority 2020, published 2023)
In brackets after ≈: the same amount, converted by molar mass. Like-named read-outs stand apart in the source and are kept apart here.

Tests used:
MDA-MB-231 [1] = assay: MTT antiproliferative assay, 48 h, MDA-MB-231; assay type: cell-based, human; conditions: Homo sapiens, MDA-MB-231, 48-hour exposition, read-out: Cytotoxicity, IC50, μM MDA-MB-231
Procedure: (§1) Anticancer activity of compounds of invention, PDI A3-inhibitors has been tested in vitro in classical antiproliferative assay in various cancer cells lines. Monolayer tumor cell lines MDA-MB-231 (human mammary breast adenocarcinoma), MCF-7 (human breast adenocarcinoma, estrogen-positive), HT-1080 (human fibrosarcoma) and Caco-2 (human colon adenocarcinoma) were cultured in standard medium DMEM (Dulbecco's modified Eagle's medium) (“Sigma”) supplemented with 10% foetal bovine serum (“Sigma”). About 2000-4000 cells per well (depending on line nature) were placed in 96-well plates and after 24 h compounds were added to the wells. Untreated cells were used as a control. The plates were incubated for 48 h, 37° C., 5% CO2. The number of surviving cells was determined using 3-(4,5-dimethylthiazol-2-yl)-2,5-diphenyltetrazolinium bromide (MTT). MTT-test: after incubating culture medium was removed and 200 μL fresh medium with 20 μL MTT (2 mg/mL in HBSS) was added in each well of the plate. After incubation (3 hr., 37° C., 5% CO2), the medium with MTT was removed and 200 μL DMSO were added at once to each sample. The samples were tested at 540 nm on Thermo Scientific Multiskan EX microplate photometer. The half-maximal inhibitory concentration (IC50) of each compound was calculated using Graph Pad Prism® 3.0.

CaCo-2 = assay: MTT antiproliferative assay, 48 h, Caco-2; assay type: cell-based, human; conditions: Homo sapiens, Caco-2, 48-hour exposition, read-out: Cytotoxicity, IC50, μM CaCo-2
Procedure: as §1

MDA-MB-231 [2] = assay: MTT antiproliferative assay, 72 h, with or without estradiol, MDA-MB-231; assay type: cell-based, human; conditions: for IC50: Homo sapiens, MDA-MB-231, 72 hours exposition, MTT
Procedure: (§2) Anticancer activity of selected compounds of invention, PDI A3-inhibitors has been also tested in vitro in antiproliferative assay in normoxic and hypoxic conditions as well in estrogen-stimulated cancer cells. In the experiment, cells were seeded on 96-well plates (Sarstedt, Germany) in appropriate culture medium at a density of 10^5 cells/mL 24 h before adding the tested compounds. Cells were treated with each compound in four concentrations in the range 0.1-100 μg/mL. […] After 72 h of compound treatment at 37° C., 5% CO2 humid atmosphere and in wo different oxygen level conditions: 21%—normal and <1%—hypoxia. In some experiments the MDA-MB-231 and MCF-7 cells were seeded with or without 200 nM estradiol and after 24 h the tested compounds were added. A previously described sulforhodamine B antiproliferative assay was used with minor modifications (Skehan P et al., 1990). Briefly, cells were fixed with 50 μL/well of 50% (w/v) trichloroacetic acid (Avantor Performance Materials, Gliwice, Poland). After 1 h incubation, plates were washed several times with tap water and 50 μL of 0.4% (w/v) solution of sulforhodamine B (Sigma-Aldrich, Germany) in 1% (v/v) acetic acid (Avantor Performance Materials, Gliwice, Poland) was added to each well. After 30 min incubation at room temperature, unbound dye was washed out with 1% (v/v) acetic acid, whereas bound dye was solubilized with 10 mM unbuffered TRIS (Avantor Performance Materials, Gliwice, Poland) solution. The entire procedure was performed using a BioTek EL-406 washing station (BioTek Instruments, USA). After additional 30 min, absorbance was read using a Biotek Hybrid H4 reader (BioTek Instruments, USA) at 540 nm wavelength. MTT assay was used alternatively for HL-60 cell line and in the experiment in which estrogens are added (specified in the table legend). Absorbance was measured using a Biotek Hybrid H4 reader at 570 nm wavelength for MTT assay.
(§3) Compounds at each concentration were tested in triplicate in a single experiment and each experiment was repeated at least three times independently. Results are presented as mean IC50±SD.

MCF-7 [3] = assay: MTT antiproliferative assay, 72 h, with or without estradiol, MCF-7; assay type: cell-based, human; conditions: for IC50: Homo sapiens, MCF7, 72 hours exposition, MTT
Procedure: as §2, §3

HL-60 = assay: MTT antiproliferative assay, 72 h, HL-60; assay type: cell-based, human; conditions: Homo sapiens, HL-60, 72 hours exposition, read-out: IC50 [μg/ml] HL-60 normal
Procedure: as §2, §3

MCF-10A = assay: Selectivity index MCF-10A versus MCF-7; assay type: cell-based; conditions: 72 hours exposition
Procedure: as §2
Compounds at each concentration were tested in triplicate in a single experiment and each experiment was repeated at least three times independently. […]

HT-29 [4] = assay: MTT antiproliferative assay, 72 h, HT-29; assay type: cell-based, human; conditions: Homo sapiens, HT-29, 72 hours exposition, read-out: IC50 [μg/ml] HT-29 normal
Procedure: as §2, with “A previously described sulforhodamine B antiproliferative assay was used with minor modifications (Skehan P et al., 1990).” left out, “MTT assay was used alternatively for HL-60 cell line and in the experiment in which estrogens are added (specified in the table legend).” left out
as §3

MCF-7 [5] = assay: Sulforhodamine B antiproliferative assay, 72 h, normal/hypoxia, MCF-7; assay type: cell-based, human; conditions: 72 hours exposition
Procedure: as §2, §3

MDA-MB-231 [6] = assay: Sulforhodamine B antiproliferative assay, 72 h, normal/hypoxia, MDA-MB-231; assay type: cell-based, human; conditions: 72 hours exposition
Procedure: as §2, §3

HT-29 [7] = assay: Sulforhodamine B antiproliferative assay, 72 h, HT-29; assay type: cell-based, human; conditions: normal (21% of oxygen), 72 hours exposition
Procedure: as §2, §3

Question: With COC(=O)C1CN1S(=O)(=O)c1ccc2cc(N(C)C)ccc2c1 (centres unmarked) [Compound C-3397, Methyl 1-[[6-(dimethylamino)-2-naphthyl]sulfonyl]aziridine-2-carboxylate] as the molecule, how does the IC50 (MDA-MB-231 [1]) read?
Answer: The IC50 was 38 ± 2 µM.

Question: COC(=O)C1CN1S(=O)(=O)c1ccc2cc(OC)ccc2c1 (centres unmarked) [Compound C-3327, Methyl 1-[(6-methoxy-2-naphthyl)sulfonyl]aziridine-2-carboxylate] was tested. Which IC50 (CaCo-2) did it give?
Answer: The IC50 was 150 ± 10 µM.

Question: What does the source list for COC(=O)C1CN1S(=O)(=O)c1cccc2cc(N(C)C)ccc12 (centres unmarked) [Compound C-3375, Methyl 1-[[6-(dimethylamino)-1-naphthyl]sulfonyl]aziridine-2-carboxylate]?
Answer: IC50 (MDA-MB-231 [2]; not pretreated with estradiol, read-out: IC50 [μg/ml] MDA-MB-231 normal): 3.8 ± 0.1 µg/mL (≈ 11.4 µM); IC50 (MDA-MB-231 [2]; pretreated with 200 nM estradiol, read-out: IC50 [μg/ml] MDA-MB-231 +estradiol): 7 ± 1.1 µg/mL (≈ 20.9 µM); Sensitivity of MDA-MB-231 line after treatment with estradiol (MDA-MB-231 [2]; estradiol (200 nM), Table 4): slightly lower sensitivity; IC50 (MCF-7 [3]; not pretreated with estradiol, read-out: IC50 [μg/ml] MCF-7 normal): 3.5 ± 0.4 µg/mL (≈ 10.5 µM); IC50 (MCF-7 [3]; pretreated with 200 nM estradiol, read-out: IC50 [μg/ml] MCF-7 +estradiol): 3.4 ± 0.3 µg/mL (≈ 10.2 µM); Lower sensitivity after treatment with estradiol in MCF-7 (MCF-7 [3]; estradiol (200 nM), Table 4): not observed; IC50 (HL-60): 3.3 ± 0.2 µg/mL (≈ 9.87 µM); Selectivity index (SI): IC50 of MCF-10A/IC50 of MCF-7 (MCF-10A): 6.90; IC50 (HT-29 [4]): 27.8 ± 7.5 µg/mL (≈ 83.1 µM)

Question: How did the IC50 (MDA-MB-231 [1]) turn out when COC(=O)C1CN1S(=O)(=O)c1ccccc1C (centres unmarked) [Compound C-3320, Methyl 1-(o-tolylsulfonyl)aziridine-2-carboxylate] was run?
Answer: Its IC50 is 380 ± 15 µM.

Question: Which “IC50 [μg/ml] MCF-7 hypoxia” value (MCF-7 [5]; hypoxia (<1% of oxygen)) does the source give for N.N.[Cl][Pt][Cl] [Cisplatin] here?
Answer: Its value is 1.3 ± 0.5 µg/mL.

Question: And the “IC50 [μg/ml] MCF-7 normal” value (MCF-7 [5]; normal (21% of oxygen))?
Answer: Its value is 1.8 ± 0.3 µg/mL.

Question: And the “IC50 [μg/ml] MDA-MB-231 hypoxia” value (MDA-MB-231 [6]; hypoxia (<1% of oxygen))?
Answer: The value was 3.1 ± 0.9 µg/mL.

Question: What about the “IC50 [μg/ml] MDA-MB-231 normal” value (MDA-MB-231 [6]; normal (21% of oxygen)) of the same molecule?
Answer: The value was 3.2 ± 0.5 µg/mL.

Question: And the “IC50 [μg/ml] HT-29 normal” value (HT-29 [7])?
Answer: Its value is 2.82 ± 0.6 µg/mL.
